From patent US20260374766A1, “METHODS FOR TREATING CANCER” (Antares Therapeutics, Inc., priority 2022, published 2026)
Where two headings read alike, the source gives them in different places.

Columns and labels:
p53 Y220C = p53 Y220C (Homo sapiens, UniProt P04637, Y220C); assay: Luciferase Reporter Assay (Luc), p53 response element, NClH1299 cells with inducible p53 Y220C; type: cell-based; conditions: 6 hour; for AC50: read-out: Luc P53 Y220C AC50
Experimental: Luciferase Reporter Assay Protocol
The cells were then used for p53 reporter assay. 5,000 cells were seeded in each well of 384 plate and cultured in 0.5 ug/mL doxycycline (D3072; Sigma) containing medium for 24 hours before compound treatment. After 6 hour of compound treatment, equal volume of One-Glo reagent (E6110; Promega) was added to each well and the plate was incubated for 5 minutes with shaking at room temperature. The luciferase activity was immediately measured with PheraStar microplate reader.

H1299 p53 Y220C = assay: Cell Proliferation Assay (CellTiter-Glo, CTG), H1299 p53 Y220C (NClH1299-inducible p53 Y220C); type: cell-based; conditions: Homo sapiens, NCI-H1299, 120 h, NClH1299-inducible p53 Y220C cells, 5 days
Experimental: Inducible p53 Y220C and R273H constructs (Tet-One inducible expression system; Takara) were stably expressed in NClH1299 cells by lentiviral transduction. NUGC3, A549, BxPC3, T3M4, HuH7, HCC2935, MFE296, NClH1299, NClH1299-inducible p53 Y220C, and NClH1299-inducible p53 R273H cell lines were used for cell proliferation assay. 250-500 cells were seeded in each well of 384 plate and then compounds were dispensed into each well using Echo or Tecan. After 5 days of incubation, equal volume of CellTiter-Glo reagent (G7570; Promega) was added into each well and the plate was incubated at room temperature for 10 minutes with shaking. The luminescent signal was measured by PheraStar microplate reader and IC50 was calculated.

[1] = biological target: T1, p53 Y220C mutant protein (amino acid residues 94-293) (Homo sapiens, UniProt P04637, Y220C); assay: Surface Plasmon Resonance (SPR) assay, Kd_kinetic; type: binding; conditions: SPR, p53 Y220C, read-out: SPR P53 Y220C KD kinetic
T1 construct: p53 Y220C mutant protein (amino acid residues 94-293)
T1 sequence (P04637 94-293, stated change not applied): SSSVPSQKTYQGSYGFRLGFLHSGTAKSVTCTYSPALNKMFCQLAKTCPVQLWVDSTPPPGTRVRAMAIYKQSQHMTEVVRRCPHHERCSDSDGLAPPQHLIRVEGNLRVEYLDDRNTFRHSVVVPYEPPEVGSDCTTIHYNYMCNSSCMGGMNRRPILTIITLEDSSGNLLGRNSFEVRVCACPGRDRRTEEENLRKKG
Experimental: Surface Plasmon Resonance (SPR) Assay Protocol
SPR experiments were performed on a Biacore 8K instrument. […] The running buffer contained 50 mM Tris, pH 7.5, 100 mM NaCl, 1 mM DTT, 0.01% Brij35, 0.05% Tween-20 and 1% DMSO. The assay temperature was maintained at 16 or 20 °C and data were fit into the 1:1 binding model using the Biacore Insight Evaluation software.

[2] = Emax, luciferase reporter, NClH1299 inducible p53 Y220C
[3] = AC50, NClH1299 cells with inducible p53 Y220C
[4] = Emax, NClH1299 cells with inducible p53 Y220C, 10 uM tool compound as positive control
[5] = AC50, luciferase reporter, NClH1299 inducible p53 Y220C

SMILES	Emax (p53 Y220C; [2]) [%]	IC50 (H1299 p53 Y220C; CellTiter-Glo) [nM]	Kd [1] [nM]	AC50 (p53 Y220C; [3]) [nM]	Emax (p53 Y220C; [4]) [%]	AC50 (p53 Y220C; [5]) [nM]	other results
CNC(=O)c1ccc(NCC#Cc2nc3c(N[C@@H]4C[C@@H]5COC[C@@H](N5)[C@@H]4F)cccn3c2SC(F)(F)F)c(OC)c1 (relative stereo) [Example 329]	80 to 90	< 750	–	–	–	–	–
[2H]C(C)(O)CNC(=O)c1ccc(NCC#Cc2cc3c(N[C@@H]4CCN(C)C[C@@H]4F)cccn3c2SC(F)(F)F)c(OC)c1 (single isomer, unassigned) [Example 487, 4-{[3-(8-{[(3S,4R)-3-fluoro-1-methylpiperidin-4-yl]amino}-3-[(trifluoromethyl)sulfanyl]indolizin-2-yl)prop-2-yn-1-yl]amino}-N-[(2R*)-2-hydroxy(2-^2H)propyl]-3-methoxybenzamide]	–	–	< 10	< 750	> 90	–	IC50 (H1299 p53 Y220C): < 750 nM
CNC(=O)c1ccc(NCC#Cc2nc3c(N[C@@H]4CCN(C)C[C@@H]4F)cccn3c2C(F)(F)C(F)(F)F)c(OC)c1 [Example 30, 4-{[3-(8-{[(3S,4R)-3-fluoro-1-methylpiperidin-4-yl]amino}-3-(1,1,2,2,2-pentafluoroethyl)imidazo[1,2-a]pyridin-2-yl)prop-2-yn-1-yl]amino}-3-methoxy-N-methylbenzamide]	–	–	–	–	–	–	Kd ([1]; kinetic KD): 10 to 100 nM; Emax (p53 Y220C; luciferase reporter, NClH1299 inducible p53 Y220C, 10 uM tool compound as positive control): > 90%; AC50 (p53 Y220C; luciferase reporter, NClH1299 inducible p53 Y220C): > 3000 nM
COc1cc2c(cc1NCC#Cc1nc3c(N[C@@H]4CCN(C)C[C@@H]4F)cccn3c1CC(F)(F)F)CNC2=O [Example 95, 5-{[3-(8-{[(3S,4R)-3-fluoro-1-methylpiperidin-4-yl]amino}-3-(2,2,2-trifluoroethyl)imidazo[1,2-a]pyridin-2-yl)prop-2-yn-1-yl]amino}-6-methoxy-2,3-dihydroisoindol-1-one]	–	–	–	–	–	–	Kd ([1]; kinetic KD): < 10 nM
COc1cc(C(=O)NCC2CN(C)C2)ccc1NCC#Cc1nc2c(N[C@@H]3CCOC[C@@H]3F)cccn2c1SC(F)(F)F [Example 227]	70 to 80	> 3000	< 10	–	–	> 3000	–
CNC(=O)c1ccc(OCCN(C)C)c(NCC#Cc2nc3c(N[C@@H]4CCOC[C@@H]4F)cccn3c2SC(F)(F)F)c1 [Example 229]	70 to 80	750 to 1500	< 10	–	–	750 to 1500	–
CNC(=O)c1cc(NCC#Cc2nn3c(N[C@@H]4CCN(C)C[C@@H]4F)cccc3c2SC(F)(F)F)c(OC)cn1 [Example 271]	80 to 90	< 750	< 10	–	–	< 750	–
CNC(=O)c1ccc(NCC#Cc2nc3c(N[C@H]4C[C@H]5COC[C@H](N5)[C@H]4F)cccn3c2SC(F)(F)F)c(OC)c1 [Example 281]	80 to 90	1500 to 3000	–	–	–	–	–
CNC(=O)c1cc(NCC#Cc2cc3c(N[C@@H]4CCN(C)C[C@@H]4F)cccn3c2SC(F)(F)F)n2ncnc2c1 [Example 361]	< 70	> 3000	–	–	–	> 3000	–
COc1cc(S(C)(=N)=O)ccc1NCC#Cc1cc2c(N[C@@H]3CCN(C)C[C@@H]3F)cccn2c1SC(F)(F)F (some centres unmarked) [Example 374]	80 to 90	< 750	< 10	–	–	< 750	–
CNC(=O)c1ccc(NCC#Cc2cc3c(N[C@@H]4CCN(C)C[C@@H]4F)cccn3c2SC(F)(F)F)c(O[C@H]2C[C@H](O)C2)c1 [Example 398]	80 to 90	–	< 10	–	–	< 750	–
C[C@H](O)CNC(=O)c1ccc(OC2COC2)c(NCC#Cc2cc3c(N[C@@H]4CCN(C)C[C@@H]4F)cccn3c2SC(F)(F)F)c1 [Example 400]	80 to 90	< 750	< 10	–	–	< 750	–
[2H]C([2H])([2H])Oc1cc(S(C)(=O)=O)ccc1NCC#Cc1cc2c(N[C@@H]3CCN(C(F)(F)F)C[C@@H]3F)cccn2c1SC(F)(F)F [Example 412]	> 90	–	< 10	–	–	< 750	–
CNC(=O)c1ccc(O[C@H]2C[C@@H](O)C2)c(NCC#Cc2cc3c(N[C@@H]4CCN(C)C[C@@H]4F)cccn3c2SC(F)(F)F)c1 [Example 413, 3-{[3-(8-{[(3S,4R)-3-fluoro-1-methylpiperidin-4-yl]amino}-3-[(trifluoromethyl)sulfanyl]indolizin-2-yl)prop-2-yn-1-yl]amino}-N-methyl-4-[(1s,3s)-3-hydroxycyclobutoxy]benzamide]	> 90	< 750	< 10	–	–	< 750	–
[2H]C([2H])([2H])Oc1cc(S(C)(=O)=O)ccc1NCC#Cc1nc2c(N[C@@H]3CCN(C)C[C@@H]3C)cccn2c1SC(F)(F)F [Example 454]	–	–	< 10	< 750	> 90	–	–
[2H]C([2H])([2H])Oc1cc(S(C)(=O)=O)ccc1NCC#Cc1nn2c(N[C@@H]3CCN(C)C[C@@H]3F)cccc2c1SC(F)(F)F [Example 461]	–	–	< 10	< 750	> 90	–	–
CNC(=O)c1ccc(OCC2(O)CC2)c(NCC#Cc2cc3c(N[C@@H]4CCN(C)C[C@@H]4F)cccn3c2SC(F)(F)F)c1 [Example 467]	–	–	< 10	< 750	> 90	–	IC50 (H1299 p53 Y220C): < 750 nM
CNC(=O)c1ccc(NCC#Cc2cc3c(N[C@@H]4CCN(C)C[C@@H]4F)cccn3c2SC(F)(F)F)c(O[C@H]2C[C@@H](O)C2)c1 [Example 474]	–	–	< 10	< 750	> 90	–	–
[2H]C([2H])([2H])Oc1cc(S(C)(=O)=O)ccc1NCC#Cc1cc2c(N[C@@H]3CCN(C)C[C@@H]3F)cccn2c1SC(F)(F)F [Example 485]	–	–	< 10	< 750	> 90	–	–
[2H]C([2H])([2H])Oc1cc(S(C)(=O)=O)ccc1NCC#Cc1nc2c(N[C@@H]3CCN(C)C[C@@H]3F)nccn2c1SC(F)(F)F [Example 490]	–	–	< 10	< 750	> 90	–	–
CNC(=O)c1cc(NCC#Cc2cc3c(N[C@@H]4CCN(C)C[C@@H]4F)cccn3c2SC(F)(F)F)c2ncnn2c1 [Example 494]	–	–	< 10	< 750	> 90	–	IC50 (H1299 p53 Y220C): < 750 nM
[2H]C([2H])([2H])Oc1cc(C(=O)NC)ccc1NCC#Cc1nn2c(N[C@@H]3CCN(C)C[C@@H]3F)cccc2c1SC(F)(F)F [Example 500]	–	–	< 10	< 750	> 90	–	IC50 (H1299 p53 Y220C): < 750 nM
[2H]C([2H])([2H])N1CC[C@@H](Nc2cccn3c(SC(F)(F)F)c(C#CCNc4ccc(S(C)(=O)=O)cc4OC)cc23)[C@@H](F)C1 [Example 501]	–	–	–	–	> 90	–	IC50 (H1299 p53 Y220C): < 750 nM
[2H]C([2H])([2H])Oc1cc(C(=O)NC)ccc1NCC#Cc1nc2c(N[C@@H]3CCN(C)C[C@@H]3F)cccn2c1SC(F)(F)F [Example 505, 4-{[3-(8-{[(3S,4R)-3-fluoro-1-methylpiperidin-4-yl]amino}-3-[(trifluoromethyl)sulfanyl]imidazo[1,2-a]pyridin-2-yl)prop-2-yn-1-yl]amino}-3-(2H3)methoxy-N-methylbenzamide]	–	–	–	–	> 90	–	IC50 (H1299 p53 Y220C): < 750 nM
[2H]C([2H])([2H])Oc1ccc(C(=O)NC)cc1NCC#Cc1nc2c(N[C@@H]3CCN(C)C[C@@H]3F)cccn2c1SC(F)(F)F [Example 507]	–	–	< 10	< 750	> 90	–	IC50 (H1299 p53 Y220C): < 750 nM
